Laboratory results reported in patent publication US9969723B2, “3-(4-(benzyloxy)phenyl)hex-4-ynoic acid derivative, method of preparing same and pharmaceutical composition for preventing and treating metabolic disease including same as effective ingredient” (HYUNDAI PHARM CO., LTD, priority 2014, dated 2018).

Tests used:
CYP2C9 = CYP2C9 (Homo sapiens (Human), UniProt P11712); experiment: CYP inhibition (BD GENTEST kit); format: in vitro ADME; conditions: CYP2C9 enzyme of the BD GENTEST CYP2C9 inhibition kit, pH 7.4, read-out: CYP inhibition (%) 2C9
Procedure: (§1) CYP is the enzyme involved in drug metabolism. So, the inhibition of this enzyme can change the prediction of dose of a drug and toxicity caused by the co-treatment with other drugs. Therefore, the inventors measured the inhibitory effect of the compounds of Examples of the invention on endogenous CYP3A4, CYP2C9, CYP1A2, CYP2D6, and CYP2C19. […] To prepare the Invitrogen kit, the test sample was diluted in distilled water at 2.5× of the final experimental concentration.
(§2) The test sample for BD GENTEST kit was diluted in acetonitrile at 50× of the final experimental concentration. NADPH-coenzyme mixture was prepared by diluting the coenzyme, G6PDH, and regulatory protein included in the kit with distilled water at the concentration instructed by the kit. The prepared 50× sample (4 μL) and the NADPH-coenzyme mixture (96 μL) were mixed in each well of U-bottom 96-well plate, followed by pre-culture for 10 minutes in a 37° C. incubator. Enzyme/substrate mixed solution was prepared by diluting the buffer (0.5 M potassium phosphate, pH 7.4), each CYP450 enzyme/substrate mixed solution included in the kit with distilled water at the instructed concentration. Upon completion of the pre-culture, 100 μL of the enzyme/substrate mixed solution was added in each well of the plate, followed by culture in a 37° C. incubator for 15 minutes (CYP 1A2), 30 minutes (CYP 3A4 and CYP 2C19) or 1 and half hours (CYP 2C9). […] The values obtained above were converted into % as the inhibition rate of the sample by the value of the non-treated group.

CYP2C19 = CYP2C19 (Homo sapiens (Human), UniProt P33261); experiment: CYP inhibition (BD GENTEST kit); format: in vitro ADME; conditions: CYP2C19 enzyme of the BD GENTEST CYP2C19 inhibition kit, pH 7.4, read-out: CYP inhibition (%) 2C19
Procedure: as §1, §2

CYP2D6 = CYP2D6 (Homo sapiens (Human), UniProt P10635); experiment: CYP inhibition (Invitrogen Vivid kit); format: in vitro ADME; conditions: CYP2D6 P450 BACULOSOMES reagent (Invitrogen kit P2862), probe Vivid CYP450 substrate, read-out: CYP inhibition (%) 2D6
Excerpt: (§3) CYP is the enzyme involved in drug metabolism. So, the inhibition of this enzyme can change the prediction of dose of a drug and toxicity caused by the co-treatment with other drugs. Therefore, the inventors measured the inhibitory effect of the compounds of Examples of the invention on endogenous CYP3A4, CYP2C9, CYP1A2, CYP2D6, and CYP2C19. At this time, Invitrogen (P2862) was used as the CYP2D6 inhibition kit, and BD GENTEST (459100, 459300, 459400, 459500) was used as the CYP1A2, CYP2C9, CYP2C19, and CYP3A4 inhibition kit. To prepare the Invitrogen kit, the test sample was diluted in distilled water at 2.5× of the final experimental concentration.
P450 BACULOSOMES® reagent and reproducer (100×) included in Invitrogen kit were diluted in Vivid® CYP450 reaction buffer (2×) at the concentration that matched the target CYP450. The prepared 2.5× sample (80 μL) and the diluted P450 BACULOSOMES® reagent mixture (100 μL) were mixed in each well of U-bottom 96-well plate, followed by pre-culture for 20 minutes. Vivid® CYP450 substrate and NADP+ (100×) were diluted in Vivid® CYP450 reaction buffer (2×) at the concentration that matched the target CYP450 and the substrate. Upon completion of the pre-culture, substrate-NADP (nicotinamide adenine dinucleotide phosphate) mixed solution (20 μL) was added thereto, followed by reaction for 1 hour. Upon completion of the reaction, the reactant was transferred onto the white plate, and then fluorescence was measured with a microplate reader (CYP 2D6 excitation wavelength: 400 nm, absorption wavelength: 502 nm). […]

GPR40 = GPR40 (Homo sapiens (Human), UniProt O14842); experiment: Calcium flux GPCR agonist assay (Millipore GPCR profiler, FLIPR TETRA)
Procedure: The compounds of Examples of the invention dissolved in DMSO (dimethyl sulfoxide), PBS (phosphate buffered saline), and DW (distilled water), etc, were diluted three-times with EMD Millipore's GPCR profiler assay buffer. […] Each well was filled with EMD Millipore's GPCR profiler assay buffer. The said EMD Millipore's GPCR profiler assay buffer was HBSS (Hanks Balanced Salt Solution) containing 20 mM HEPES (4-(2-hydroxyethyl)-1-piperazineethanesulfonic acid) and 2.5 mM Probenecid (4-(dipropylsulfamoyl)benzoic acid), whose pH was regulated as 7.4.
The compounds of Examples were duplicated at each concentration. […] Agonist assay was performed by using FLIPR^TETRA. Fluorescence and luminescence baseline were measured. […] To measure the activity of those compounds of Examples, GPCR activity assay was performed for 180 seconds.
When the assay data were not satisfactory, an additional experiment was performed.
All the concentration dependent graphs were made by using GraphPad Prism. The graph was modified by Sigmoidal dose response.

CYP3A4 = CYP3A4 (Homo sapiens (Human), UniProt P08684); experiment: CYP inhibition (BD GENTEST kit); format: in vitro ADME; conditions: CYP3A4 enzyme of the BD GENTEST CYP3A4 inhibition kit, pH 7.4, read-out: CYP inhibition (%) 3A4
Excerpt: as §3
The test sample for BD GENTEST kit was diluted in acetonitrile at 50× of the final experimental concentration. NADPH-coenzyme mixture was prepared by diluting the coenzyme, G6PDH, and regulatory protein included in the kit with distilled water at the concentration instructed by the kit. The prepared 50× sample (4 μL) and the NADPH-coenzyme mixture (96 μL) were mixed in each well of U-bottom 96-well plate, followed by pre-culture for 10 minutes in a 37° C. incubator. Enzyme/substrate mixed solution was prepared by diluting the buffer (0.5 M potassium phosphate, pH 7.4), each CYP450 enzyme/substrate mixed solution included in the kit with distilled water at the instructed concentration. Upon completion of the pre-culture, 100 μL of the enzyme/substrate mixed solution was added in each well of the plate, followed by culture in a 37° C. incubator for 15 minutes (CYP 1A2), 30 minutes (CYP 3A4 and CYP 2C19) or 1 and half hours (CYP 2C9). Upon completion of the reaction, the reactant was transferred onto the white plate, and then fluorescence was measured with a microplate reader (CYP 1A2 and CYP 2C19 excitation wavelength: 410 nm, absorption wavelength: 460 nm; CYP 2C9 and CYP 3A4 excitation wavelength: 409 nm, absorption wavelength: 530 nm). The values obtained above were converted into % as the inhibition rate of the sample by the value of the non-treated group.

[1] = system: Male OLETF (Otsuka Long-Evans Tokushima fatty) rats, the type II diabetes animal model (obesity); experiment: Oral glucose tolerance test (OGTT) 3; format: in vivo, rat
Procedure: (§4) Male OLETF (Otsuka Long-Evans Tokushima fatty) rats at 29˜30 weeks, the type II diabetes animal model (obesity), were adapted at least for 7 days. Only healthy animals were selected thereafter, followed by OGTT. After fasting for 16˜18 hours, 5 rats per group were randomly selected and orally administered with the compounds prepared in Examples 5, 9, 14, 28, 37, and 47 at the dose of 1˜10 mg/kg. At this time, 5% polyethyleneglycol (PEG) was orally administered at the same dose to the non-treated group rats. 60 minutes after the sample administration, glucose (4 g/kg) was orally administered thereto at the dose of 5 ml/kg. Then, blood glucose was measured by using Accu-chek active strip (Roche diagnostic Co.). The time for the measurement was set at 60 minutes before the glucose administration (−60), 0 minute, 20 minutes, 40 minutes, 60 minutes, and 120 minutes after the glucose administration, and blood glucose was measured through tail vein puncture.

[2] = system: Male Goto-Kakizaki (GK) rats, the type II diabetes animal model (not obesity); experiment: Oral glucose tolerance test (OGTT) 2; format: in vivo, rat
Procedure: as §4, with “Goto-Kakizaki (GK)” for “OLETF (Otsuka Long-Evans Tokushima fatty)”, “22˜23” for “29˜30”, “(not obesity),” for “(obesity),”, “0.3˜10” for “1˜10”

[3] = oral dose 10 mg/kg, values in text

Sequence of GPR40 (O14842 whole entry): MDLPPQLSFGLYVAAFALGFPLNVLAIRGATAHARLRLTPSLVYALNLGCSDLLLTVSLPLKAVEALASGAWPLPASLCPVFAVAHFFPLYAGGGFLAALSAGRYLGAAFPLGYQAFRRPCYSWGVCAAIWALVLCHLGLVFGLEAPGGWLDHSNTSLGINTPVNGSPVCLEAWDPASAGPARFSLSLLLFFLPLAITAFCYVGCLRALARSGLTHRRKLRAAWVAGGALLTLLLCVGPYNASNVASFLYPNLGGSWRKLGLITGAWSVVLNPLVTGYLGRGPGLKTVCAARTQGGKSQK
Sequence of CYP2D6 (P10635 whole entry): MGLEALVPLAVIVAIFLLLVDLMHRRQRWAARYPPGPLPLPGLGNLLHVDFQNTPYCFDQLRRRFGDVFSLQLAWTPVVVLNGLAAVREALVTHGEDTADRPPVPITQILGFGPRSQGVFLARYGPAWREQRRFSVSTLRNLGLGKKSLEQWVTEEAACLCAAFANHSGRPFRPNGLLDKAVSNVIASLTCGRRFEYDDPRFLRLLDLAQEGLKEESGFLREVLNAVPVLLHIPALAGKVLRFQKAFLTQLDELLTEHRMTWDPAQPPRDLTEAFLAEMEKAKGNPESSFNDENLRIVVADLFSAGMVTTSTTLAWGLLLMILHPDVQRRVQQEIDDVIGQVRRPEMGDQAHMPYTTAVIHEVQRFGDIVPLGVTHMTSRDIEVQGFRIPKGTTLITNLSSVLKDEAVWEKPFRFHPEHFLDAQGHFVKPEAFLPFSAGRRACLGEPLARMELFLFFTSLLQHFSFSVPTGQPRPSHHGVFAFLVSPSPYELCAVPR
Sequence of CYP2C9 (P11712 whole entry): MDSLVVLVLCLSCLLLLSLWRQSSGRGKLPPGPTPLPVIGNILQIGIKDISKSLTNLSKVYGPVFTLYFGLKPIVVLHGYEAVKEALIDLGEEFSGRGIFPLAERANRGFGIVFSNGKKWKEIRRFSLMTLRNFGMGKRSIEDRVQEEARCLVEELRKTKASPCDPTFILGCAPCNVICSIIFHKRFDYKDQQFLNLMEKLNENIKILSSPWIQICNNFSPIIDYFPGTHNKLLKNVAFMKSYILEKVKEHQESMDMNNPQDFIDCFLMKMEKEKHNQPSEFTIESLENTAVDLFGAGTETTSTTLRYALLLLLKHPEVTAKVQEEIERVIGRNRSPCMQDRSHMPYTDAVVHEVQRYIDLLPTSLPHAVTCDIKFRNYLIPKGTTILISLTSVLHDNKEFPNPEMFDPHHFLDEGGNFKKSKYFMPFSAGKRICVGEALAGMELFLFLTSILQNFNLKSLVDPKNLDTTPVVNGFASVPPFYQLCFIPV
Sequence of CYP3A4 (P08684 whole entry): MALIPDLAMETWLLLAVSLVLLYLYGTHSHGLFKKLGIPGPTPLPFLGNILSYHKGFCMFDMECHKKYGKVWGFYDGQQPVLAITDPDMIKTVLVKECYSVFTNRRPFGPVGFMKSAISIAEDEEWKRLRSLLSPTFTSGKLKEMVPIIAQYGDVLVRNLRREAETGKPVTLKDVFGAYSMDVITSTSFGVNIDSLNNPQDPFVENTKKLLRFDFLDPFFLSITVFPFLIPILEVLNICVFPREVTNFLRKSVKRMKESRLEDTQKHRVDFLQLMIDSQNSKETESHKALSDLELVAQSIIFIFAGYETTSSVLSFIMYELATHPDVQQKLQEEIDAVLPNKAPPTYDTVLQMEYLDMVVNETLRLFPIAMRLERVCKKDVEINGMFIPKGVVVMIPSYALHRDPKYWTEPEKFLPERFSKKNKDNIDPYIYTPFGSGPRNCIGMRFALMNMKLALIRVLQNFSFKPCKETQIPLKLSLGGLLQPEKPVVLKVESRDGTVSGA
Sequence of CYP2C19 (P33261 whole entry): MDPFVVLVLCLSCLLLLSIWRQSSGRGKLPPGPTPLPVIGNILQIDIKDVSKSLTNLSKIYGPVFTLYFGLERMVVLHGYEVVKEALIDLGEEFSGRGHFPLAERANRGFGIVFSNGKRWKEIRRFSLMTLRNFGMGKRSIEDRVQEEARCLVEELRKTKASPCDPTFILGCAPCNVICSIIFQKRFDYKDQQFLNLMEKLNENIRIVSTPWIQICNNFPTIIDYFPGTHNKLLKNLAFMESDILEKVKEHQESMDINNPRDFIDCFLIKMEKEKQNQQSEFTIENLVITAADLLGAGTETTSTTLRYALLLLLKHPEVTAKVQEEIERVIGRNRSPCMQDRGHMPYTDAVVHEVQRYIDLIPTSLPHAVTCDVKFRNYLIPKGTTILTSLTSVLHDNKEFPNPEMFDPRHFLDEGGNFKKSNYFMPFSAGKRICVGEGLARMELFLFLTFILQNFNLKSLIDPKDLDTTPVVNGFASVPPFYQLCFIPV

Compound | inhibition at 1.5 h, 10 µM (CYP2C9) | inhibition at 30 min, 10 µM (CYP2C19) | inhibition at 1 h, 10 µM (CYP2D6) | EC50 (GPR40) | inhibition at 30 min, 10 µM (CYP3A4) | % AUC ([1]; oral dose 1 mg/kg) | % AUC ([1]; oral dose 3 mg/kg) | % AUC ([1]; oral dose 10 mg/kg) | hypoglycemic effect compared with the non-treated group [1, 3] | % AUC ([2]; oral dose 0.3 mg/kg) | % AUC ([2]; oral dose 1 mg/kg) | % AUC ([2]; oral dose 3 mg/kg) | % AUC ([2]; oral dose 10 mg/kg) | hypoglycemic effect by that of the non-treated group [2, 3]
CC#C[C@@H](CC(=O)O)c1ccc(OCc2cccc(C3=CCC4(CC3)OCCO4)c2)cc1 [Example 9, L-lysine (3S)-3-(4-(3-(1,4-dioxaspiro[4,5]dec-7-en-8-yl)benzyloxy)phenyl)hex-4-ynoate] | 47.1% | 3.7% | 13.9% | < 1 nM | 15.5% | B (25.0-35.0%) | A (over 35.0%) | A (over 35.0%) | more than 35.0% | C (under 25.0%) | C (under 25.0%) | A (over 35.0%) | A (over 35.0%) | more than 35.0%
O=C(O)CCc1ccc(NCc2cccc(Oc3ccccc3)c2)cc1 [Comparative Example 3, 4-(3-phenoxybenzylamino)phenylpropionic acid, reference compound] | – | – | – | 27 nM | – | – | – | – | – | – | – | – | – | –
